# Reference: patent publication US5304474A, “Hydrophobic peptide esters and amides” (Board of Regents, The University of Texas System, priority 1991, dated 1994)
# Legend:
# [1] = system: [^3 H]Leu-Leu-OMe uptake by PBL (facilitated transport); assay: Competitive inhibition of [3H]Leu-Leu-OMe uptake; type: cell-based, human; details: for inhibition at 250 µM: Homo sapiens, unlabeled compound 250 microM, [3H]Leu-Leu-OMe 10 microM (Table 5)
# Procedure: (§1) Human peripheral blood lymphocytes (PBL) were incubated in the presence of [^3 H]labeled Leu-Leu-OMe at 22° C. for varying lengths of time. The incubation mixture was then centrifuged through silicone oil to separate the cells from any unbound or non-internalized [^3 HLeu-Leu-OMe. […] At 37° C., levels of [^3 H]Leu-Leu-OMe accumulation by PBL were increased above those seen at 22° C. (see Table 4).
# [2] = molecular target: T1, dipeptidyl peptidase I (DPPI) (Bos taurus, UniProt Q3ZCJ8); assay: Dipeptidyl peptidase I catalyzed lysis of human RBC; type: cell-based, bovine; details: FIG. 12, FIG. 13
# Procedure: The following experiments were carried out to determine whether DPPI could generate a lytic product from Leu-Leu-OMe. In the experiment detailed in FIG. 12, ^51 Cr-labeled human erythrocytes (RBC) were incubated with varying concentrations of Leu-Leu-OMe alone or in the presence of purified bovine DPPI.
# In the experiments detailed in FIG. 13, ^51 Cr-labeled RBC's were exposed to various dipeptide esters or amides in the presence or absence of purified DPPI. […] The first observation is probably related to the inability of this enzyme to catalyze transpeptidation of peptide esters containing D-stereoisomers of amino acids. The latter observations are likely to be related to the fact that polymers of Ser-Leu or Leu-Tyr are not hydrophobic and therefore unlikely to enter and disrupt cell membranes.
# [3] = system: natural killer cells (NK); assay: NK function: lysis of K562 target cells (51Cr release) after preincubation of lymphocytes with compound; details: for NK toxicity / effect on NK function, in words: lymphocytes exposed 15 minutes at room temperature (FIG. 4, FIG. 5)
# [4] = molecular target: T1, dipeptidyl peptidase I (DPPI); assay: Polymerization of [3H]Leu-Leu-OMe to a TCA insoluble product by purified enzyme; type: biochemical, bovine
# Source text: When R1 and R2 are amino acids with nonpolar side groups, such products are very hydrophobic and water insoluble (J. Biol. Chem. 1952; 195:645-656). […] Of note, much lower extracellular concentrations of Leu-Leu-OMe are required for production of a similar product within NK and T8 cells.
# [5] = system: peripheral blood lymphocytes (PBL); assay: [3H]Leu-Leu-OMe uptake/binding by lymphocytes; type: in vitro ADME, human
# Procedure: as §1
# [6] = Conversion of [3H]Leu-Leu-OMe in cells to a product which precipitates in 10% TCA; type: in vitro ADME, human; details: for Fractional Conversion of [^3 H]Leu--Leu--OMe to a product which Precipitates in 10% TCA: Intact NK, T8 Cells
# Procedure: Additional experiments, detailed in Table 7, were performed to assess the metabolic fate of [^3 H]Leu-Leu-OMe within PBL. Cells were incubated with [^3 H]Leu-Leu-OMe for 15 minutes at 22° C. to permit uptake of this compound and then were washed. If the cells were immediately lysed and 10% trichloroacetic acid (TCA) was added to precipitate higher molecular weight cell proteins and nucleic acids, essentially all of the [^3 H]label remained in the supernatant as anticipated for a small molecular weight peptide which is soluble in 10% TCA.
# In experiment 1 of Table 8 non-adherent peripheral blood lymphocytes were incubated in the presence or absence of 250 micro-M unlabeled Leu-Leu-OMe for 15 minutes and then cultured overnight at 37° C. This form of exposure to Leu-Leu-OMe has been shown previously herein to result inloss of NK cells and a substantial fraction of CD8(+) T cells, whereas the majority of CD4(+) lymphocytes are resistant to any toxic effects of this agent and remain viable and functionally intact. […] However, when production of a product which precipitated in 10% TCA was assessed following a second incubation at 37° C. for 30 minutes, it was noted that the LLMe resistant subset of lymphocytes produced almost no detectable amounts of this as yet unidentified product.
# In experiment 2 (Table 8), PBL were divided into a CD4(+) T cell (T4 cell)-enriched population and a T8, NK-enriched population by staining with anti-CD4 or anti-CD8 monoclonal antibodies and panning on goat anti-mouse coated petri dishes to enrich for the unstained lymphocyte subsets as previously described (see prior Examples and J. Immunol. 1986 136:1038-1048). Again, it was noted that T4 cells took up less [^3 H]Leu-Leu-OMe during an initial incubation than did a population of lymphocytes enriched for T8 and NK cells. However, the differences in production of a product which precipitated in 10% TCA were even more dramatic. Whereas initial [^3 H]Leu-Leu-Me uptake by T4 cells was approximately 53% of that seen with an equal number of T8 and NK cells, the amount of [^3 H]label appearing in a 10% TCA precipitate of the T4 cell sonicate after a subsequent 30 minute incubation was less than 7% of the quantity noted in the TCA precipitable of T8 and NK cell sonicates. Furthermore, little or no TCA insoluble product was produced by other non-lymphoid cell types such as dermal fibroblasts or a renal cell carcinoma line, Cur, which have been previously noted to be resistant to the toxicity of Leu-Leu-OMe (J. Immunol 1986: 136:1038-1048). […] As proteinase K digestion removed this product, it was likely to be a larger peptide or protein into which [^3 H]Leu had been incorporated.
# [7] = system: production of a TCA insoluble product from [^3 H]Leu-Leu-OMe; type: cell-based, human; details: Expt. 1; Cycloheximide 100 micro-g/ml, PMSF 1 micro-M, Iodoacetamide 0.5 micro-M; Nil 2,160 + 193
# Source text: Iodoacetamide nonspecifically binds covalently to free sulfhydryl groups and thereby inhibits thiol protease function as well as other enzymatic reactions dependent on the presence of reduced sulfhydryl groups.
# [8] = Expt. 1, LLMe Resistant Lymphocytes
# [9] = Expt. 1, Non-adherent Lymphocytes
# [10] = second 37° C. incubation 15 minutes
# [11] = second 37° C. incubation 30 minutes
# [12] = second 37° C. incubation 60 minutes
# T1 sequence (Q3ZCJ8 231-394 limits assumed): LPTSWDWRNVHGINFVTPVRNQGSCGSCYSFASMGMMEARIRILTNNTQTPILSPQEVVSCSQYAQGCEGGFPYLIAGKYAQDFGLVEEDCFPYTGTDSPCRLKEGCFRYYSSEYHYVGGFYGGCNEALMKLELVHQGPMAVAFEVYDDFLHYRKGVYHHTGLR
# T1 sequence (Q3ZCJ8 25-134 limits assumed): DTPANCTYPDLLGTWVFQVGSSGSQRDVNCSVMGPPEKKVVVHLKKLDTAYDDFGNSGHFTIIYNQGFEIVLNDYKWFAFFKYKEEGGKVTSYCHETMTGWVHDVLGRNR
# T1 sequence (Q3ZCJ8 395-463 limits assumed): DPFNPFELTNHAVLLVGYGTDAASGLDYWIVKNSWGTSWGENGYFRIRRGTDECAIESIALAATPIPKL
smiles,measurement,setting,value
"COC(=O)[C@@H](N)CC(C)C [Leu-OMe, L-leucine methyl ester, reference compound]","competitive inhibition of [3H]Leu-Leu-OMe uptake, in words",[1],do not competitively inhibit PBL uptake of L-Leu-L-Leu-OMe
same,inhibition at 250 µM,[1],-10%
same,"RBC lysis in the presence of purified DPPI, in words",[2],not polymerized by DPPI to form a product capable of lysing RBC's
same,NK activity,"[3]; PBM, 5 mM (FIG. 1)",ablated all NK activity
same,"NK toxicity / effect on NK function, in words",[3],had no irreversible effect on NK function
COC(=O)[C@H](CC(C)C)NC(=O)[C@@H](N)CC(C)C [[^3 H]Leu--Leu--OMe],Fractional Conversion of [^3 H]Leu--Leu--OMe to a product which Precipitates in 10% TCA,[4]; 1 micro-M,< 0.01%
same,Fractional Conversion of [^3 H]Leu--Leu--OMe to a product which Precipitates in 10% TCA,[4]; 10 micro-M,0.03%
same,Fractional Conversion of [^3 H]Leu--Leu--OMe to a product which Precipitates in 10% TCA,[4]; 100 micro-M,0.08%
same,Fractional Conversion of [^3 H]Leu--Leu--OMe to a product which Precipitates in 10% TCA,[4]; 1000 micro-M,20.0%
same,[^3 H]Leu--Leu--OMe Uptake/Binding,"[5]; Expt. 1, 0° C.",0.05 micro-moles/10^6 cells
same,[^3 H]Leu--Leu--OMe Uptake/Binding,"[5]; Expt. 1, 22° C.",0.77 micro-moles/10^6 cells
same,[^3 H]Leu--Leu--OMe Uptake/Binding,"[5]; Expt. 2, 4° C.",0.02 micro-moles/10^6 cells
same,[^3 H]Leu--Leu--OMe Uptake/Binding,"[5]; Expt. 2, 22° C.",0.31 micro-moles/10^6 cells
same,[^3 H]Leu--Leu--OMe Uptake/Binding,"[5]; Expt. 2, 37° C.",0.52 micro-moles/10^6 cells
same,"Incorporation, Initial",[6]; [8],"7,184 cpm"
same,"Incorporation, TCA Precipitate",[6]; [8],50 cpm
same,TCA Precipitate (% of initial),[6]; [8],0.7%
same,"Incorporation, Initial",[6]; [9],"27,870 cpm"
same,TCA Precipitate (% of initial),[6]; [9],8.4%
same,"Incorporation, TCA Precipitate","[6]; Expt. 1, Non-adherent Lymphocytes, 30 minutes 37° C.","2,341 cpm"
same,"Incorporation, Initial","[6]; Expt. 2, Fibroblasts","63,229 cpm"
same,"Incorporation, TCA Precipitate","[6]; Expt. 2, Fibroblasts",293 cpm
same,TCA Precipitate (% of initial),"[6]; Expt. 2, Fibroblasts",0.5%
same,"Incorporation, Initial","[6]; Expt. 2, Renal Cell Carcinoma","35,855 cpm"
same,"Incorporation, TCA Precipitate","[6]; Expt. 2, Renal Cell Carcinoma",267 cpm
same,TCA Precipitate (% of initial),"[6]; Expt. 2, Renal Cell Carcinoma",0.7%
same,"Incorporation, Initial","[6]; Expt. 2, T4 Cells","12,200 cpm"
same,"Incorporation, TCA Precipitate","[6]; Expt. 2, T4 Cells",207 cpm
same,TCA Precipitate (% of initial),"[6]; Expt. 2, T4 Cells",1.7%
same,"Incorporation, Initial","[6]; Expt. 2, T8, NK Cells","22,753 cpm"
same,"Incorporation, TCA Precipitate","[6]; Expt. 2, T8, NK Cells","3,208 cpm"
same,TCA Precipitate (% of initial),"[6]; Expt. 2, T8, NK Cells",14.1%
same,initial uptake by T4 cells relative to equal number of T8 and NK cells,[6]; Expt. 2 of Table 8,approximately 53%
same,Fractional Conversion of [^3 H]Leu--Leu--OMe to a product which Precipitates in 10% TCA,[6]; 1 micro-M,< 0.1%
same,Fractional Conversion of [^3 H]Leu--Leu--OMe to a product which Precipitates in 10% TCA,[6]; 10 micro-M,< 0.2%
same,Fractional Conversion of [^3 H]Leu--Leu--OMe to a product which Precipitates in 10% TCA,[6]; 100 micro-M,11.1%
same,Fractional Conversion of [^3 H]Leu--Leu--OMe to a product which Precipitates in 10% TCA,[6]; 250 micro-M,23.2%
same,[^3 H]Leu--Leu--OMe Total,"[6]; PBL, 15 minutes 22° C., second 37° C. incubation 0",61.4 cpm × 10^-3
same,label in TCA precipitate of T4 cell sonicate relative to T8 and NK cell sonicates,[6]; after 30 minute incubation,less than 7%
same,[^3 H]Leu--Leu--OMe TCA Prec.,[6]; second 37° C. incubation 0,0.5 cpm × 10^-3
same,[^3 H]Leu--Leu--OMe TCA Prec.,[6]; [10],6.8 cpm × 10^-3
same,[^3 H]Leu--Leu--OMe Total,[6]; [10],24.9 cpm × 10^-3
same,[^3 H]Leu--Leu--OMe TCA Prec.,[6]; [11],12.7 cpm × 10^-3
same,[^3 H]Leu--Leu--OMe Total,[6]; [11],20.6 cpm × 10^-3
same,[^3 H]Leu--Leu--OMe TCA Prec.,[6]; [12],10.7 cpm × 10^-3
same,[^3 H]Leu--Leu--OMe Total,[6]; [12],12.7 cpm × 10^-3
"O=S(=O)(F)Cc1ccccc1 [PMSF, phenylmethylsulfonylfluoride]","[^3 H]Leu--Leu--OMe Incorporation, 10% TCA Precipitate",[7],"2,078 + 213 cpm"
"CC(C)C[C@H](NC(=O)[C@@H](N)CC(C)C)C(=O)O [Leu-Leu, L-leucyl L-leucine, reference compound]","competitive inhibition of [3H]Leu-Leu-OMe uptake, in words",[1],competitively inhibited
same,inhibition at 250 µM,[1],44%
same,"RBC lysis in the presence of purified DPPI, in words",[2],not polymerized by DPPI to form a product capable of lysing RBC's
same,"NK toxicity / effect on NK function, in words",[3],had no inhibitory effect
